The values below come from PubChem BioAssay (NCI).

Assay in all cases: growth of human tumour cells (NCI), 48 h
Test [1] relates to HCT-15 colon.
Test [2] relates to HL-60(TB) leukemia.
Test [3] concerns HOP-62 NSCLC.
The test system of test [4] is M14 melanoma.
Test [5] deals with MCF7 breast.
For test [6], the system named is MDA-MB-435.
Test [7] concerns NCI-H226 lung.
Test [8] relates to NCI-H23 lung.
The test system of test [9] is RXF 393 renal.
Test [10] deals with SR leukemia.
Test [11] concerns T-47D breast.

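Assay format: 96-well plates, 48-hour exposure. TGI marks complete inhibition of growth.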 Some results are limits rather than exact numbers.

Turning to `CCN(CC)c1ccc(/C=C/C=C2C(=O)NC(=S)NC2=O)cc1`, the TGI in test [1] is greater than 100 µM; in test [2], 11 µM; in [3] it was 47.9 µM; in [4] it was greater than 100 µM; in test [5] it was greater than 100 µM; in test [6] it was 34.7 µM. Further, the TGI is 99 µM in [7]; greater than 100 µM in [8]; 45.2 µM in test [9]; greater than 100 µM in test [10]; greater than 100 µM in test [11].

For `CCn1c(SCC(=O)NNC(=S)NC)nc2ccccc2c1=O`, the TGI in [1], in test [2], in test [3], in [4], in [5] and in [6] was greater than 100 µM throughout. Also, the TGI in test [7], in [8], in test [9], in [10] and in [11] was greater than 100 µM in each case.

In the case of `COc1cc(N(Cc2ccc3oc(=O)c(-c4ccccc4)nc3c2)Cc2ccc3oc(=O)c(-c4ccccc4)nc3c2)cc(OC)c1OC`, the TGI in test [1], in [2], in test [3], in test [4], in [5] and in test [6] was greater than 10 µM each time. Also, the TGI in [7], in [8], in [9], in [10] and in [11] was greater than 10 µM in each case.

With `CCOc1cc(NC(C)=O)ccc1C(=O)NN1C(=O)CSC1c1ccccc1` (centres undefined), the TGI in [1], in test [2], in test [3], in test [4], in test [5] and in test [6] was greater than 100 µM in each case. In addition, the TGI in test [7], in test [8], in [9], in [10] and in [11] was greater than 100 µM each time.

For the molecule `CN(C)c1cccc(NC2=NCCO2)c1`, the TGI in test [1] was greater than 100 µM; in test [2], 50.5 µM; in test [3], greater than 100 µM; in [4] it was greater than 100 µM; in test [5] it was greater than 100 µM; in test [6], 42.9 µM. Moreover, the TGI was greater than 100 µM in [7]; 85.3 µM in test [8]; greater than 100 µM in [9]; 99.6 µM in test [10]; greater than 100 µM in [11].

For the molecule `Cc1ccc2c(c1)C(=O)C(C1OC(=O)c3ccccc31)C2` (centres undefined), the TGI in [1], in test [2], in test [3], in test [4], in [5] and in test [6] was greater than 100 µM throughout. The TGI in test [7], in [8], in test [9], in [10] and in test [11] was greater than 100 µM each time.

For the molecule `O=C1Nc2ccccc2/C1=c1\[nH]c(=O)/c(=C\c2ccc(OCc3ccccc3)cn2)[nH]c1=O`, the TGI in test [1] is greater than 100 µM; in test [2], greater than 100 µM; in test [3] it was 65.7 µM; in test [4], greater than 100 µM; in test [5] it was greater than 100 µM; in [6], greater than 100 µM. Moreover, the TGI was greater than 100 µM in [7]; greater than 100 µM in test [8]; 34.9 µM in test [9]; 69.4 µM in [10]; greater than 100 µM in test [11].

For `COc1ccc(/C=N/n2cnc3[nH]c(C)c(Cc4ccccc4)c3c2=N)cc1`, the TGI in [1], in [2], in test [3], in test [4], in test [5] and in [6] was greater than 100 µM in each case. The TGI in test [7] is greater than 100 µM; in test [8] it was greater than 100 µM; in test [9], 79.3 µM; in test [10] it was greater than 100 µM; in test [11], greater than 100 µM.

`O=[N+]([O-])c1ccc(O)c(/C=N/NC(=S)N2CCCCC2)c1`: the TGI is 44.1 µM in [1]; greater than 42.1 µM in [2]; greater than 100 µM in test [3]; greater than 100 µM in test [4]; greater than 100 µM in [5]; greater than 83 µM in test [6]. The TGI in test [7] is 5.94 µM; in [8], 32.9 µM; in test [9], greater than 100 µM; in test [10], greater than 70.2 µM; in test [11] it was greater than 80.1 µM.

With `COc1ccccc1C[C@@H]1OC2(C=CC(=O)C=C2)O[C@H]1Cc1ccccc1OC`, the TGI in [1] was found to be 27.9 µM; in [2] it was 29.8 µM; in test [3], 15.4 µM; in [4], 17.5 µM; in test [5] it was 17.6 µM; in test [6] it was 38.2 µM. Also, the TGI in test [7] was 16.8 µM; in test [8] it was 18.9 µM; in [9], 3.81 µM; in test [10], 13.1 µM; in [11] it was greater than 50 µM.

Regarding `COc1cc(C2c3cc4c(cc3OC(N3CCNCC3)C2C)OCO4)cc(OC)c1OC` (centres undefined), the TGI was greater than 39.9 µM in [1]; 0.929 µM in [2]; 27.3 µM in test [3]; 20 µM in test [4]; 66.1 µM in test [5]; 1.1 µM in [6]. In addition, the TGI is 8.78 µM in test [7]; greater than 100 µM in [8]; 0.99 µM in test [9]; 3.88 µM in test [10]; greater than 100 µM in test [11].

As for `CC1CC(=O)N(N(C)C)C(C#N)(C#N)C1(C#N)C#N` (centres undefined), the TGI is 31.6 µM in [1]; 4.83 µM in [2]; greater than 60.6 µM in test [3]; 42.9 µM in test [4]; greater than 100 µM in test [5]; 32.9 µM in test [6]. The TGI in test [7] is 67 µM; in [8], 43.8 µM; in [9], 26.6 µM; in [10], 30.7 µM; in [11] it was 42.1 µM.

On to `Cc1ccc(NC(=O)C(=O)CC(=O)c2sc(Nc3c(C)cccc3C)nc2C)cc1C`, for which the TGI in test [1], in [2], in [3], in [4], in test [5] and in test [6] was greater than 100 µM each time. The TGI in test [7], in test [8], in test [9], in test [10] and in test [11] was greater than 100 µM each time.

For the molecule `O=C1c2cn[nH]c2C(c2ccccc2)N1c1ccccc1` (centres undefined), the TGI in test [1], in test [2], in test [3], in [4], in [5] and in test [6] was greater than 10 µM each time. For the same molecule, the TGI in test [7], in test [8], in test [9], in [10] and in test [11] was greater than 10 µM throughout.
